Reference: patent US7579323B1, “Hemiasterlin analogs” (The University of British Columbia, priority 1997, dated 2009)
Where a name gives a salt, the structure may show the parent alone. Read-outs that look alike come from different tables or passages of the source.

What was measured:
MCF-7 mp53− cells = test: Assay for antimitotic activity, ELISA with mitosis-specific antibody TG-3; type: cell-based, human; conditions: 20 hours incubation, FIG. 6, naturally occurring compound = hemiasterlin
Procedure: Antimitotic activity is detected by enzyme-linked immunosorbent assay using a mitosis-specific antibody, TG-3 (from Albert Einstein College of Yeshiva University, Bronx, N.Y.; and see: PCT application published Jul. 4, 1996 under WO96/20218).
MCF-7 mp 53^− cells (expressing a dominant-negative p53 mutation as described in S. Fan, et al. […] Cancer Research 55:1649-1654) were cultured as monolayers in DMEM supplemented with 10% fetal bovine serum, 2 mM L-glutamine, 50 units/ml penicillin, 50 μg/ml streptomycin, 1 mM sodium pyruvate, MEM non-essential amino acids, 1 μg/ml bovine insulin, 1 μg/ml hydrocortisone, 1 ng/ml human epidermal growth factor, and 1 ng/ml β-estradiol at 37° C. in humidified 5% CO2. The cells were seeded at 10,000 cells per well of 96-well polystyrene tissue culture plates (Falcon) in a volume of 200 μl cell culture medium. The cells were allowed to grow for 24 hours and compounds were added at about 1 μg/ml or 10 μg/ml (from 1000-fold stocks in dimethylsulfoxide) and the cells were incubated for 20 hours. Nocodazole (Sigma) served as a positive control. […] 100 μl of 120 mM Na2HPO41 100 mM citric acid, pH 4.0 containing 0.5 mg/ml 2,2′-azino-bis(3-ethylbenzthiazoline-6-sulfonic acid) and 0.01% hydrogen peroxide was added for 1 hour at room temperature and the plates were read at 405 nm using a BioTek plate reader.

[1] = system: p53+ and p53− variants of human breast cancer MCF-7 cells and A549 tumor cells; test: Assay for cytotoxicity (J. Immunol. Methods 65:55-63), SPA-110 compared to hemiasterlin; type: cell-based; conditions: MCF-7 p53+ and p53− and A549 cells; FIGS. 5A and 5B; naturally occurring compound = hemiasterlin
Procedure: Cytotoxicity of SPA-110 compared to hemiasterlin as against p53+ and p53− variants of human breast cancer MCF-7 cells and A549 tumor cells was determined according to the methods described in J. Immunol. Methods 65:55-63 (1983).

[2] = system: human colon carcinoma LOVO; type: in vivo, Athymic nu/nu female mice; conditions: for % T/C day 7 / % T/C day 14 / % T/C day 21 / % T/C day 28: LOVO xenograft, SPA-110 intravenously, Vincristine intraperitoneally, p≦0.05; for % T/C day 7: day 7 post staging; for % T/C day 14: day 14 post staging; for % T/C day 21: day 21 post staging; for % T/C day 28: day 28 post staging
Procedure: The compound SPA-110 was evaluated in vivo using standard pharmacological test procedures which measure its ability to inhibit the growth of human tumor xenografts. The human colon carcinoma LOVO (American Type Culture Collection, Rockville, Md. #CCL-229) was grown in tissue culture in RPMI supplemented with 10% FBS. Athymic nu/nu female mice (Charles River, Wilmington, Mass.) were injected sub-cutaneously in the flank area with 7.0×10^6 LOVO cells. When tumors attained a mass of between 80 and 120 mg, the mice were randomized into treatment groups (day zero). Animals were treated intravenously once a day on days 1, 5, and 9 post staging (day zero) with 1 mg/kg/dose of SPA-110 prepared in 2.5% ethanol in saline or with saline as the vehicle control. Some animals were treated intraperitonealy once a day on days 1, 5 and 9 post staging with 1 mg/kg/dose Vincristine as a positive control. Tumor mass was determined every 7 days [(length×width^2)/2] for 28 days post staging. RTG or relative tumor growth (Mean tumor mass on days 7, 14, 21 and 28 divided by the mean tumor mass on day zero) was determined for each treatment group. % T/C was calculated as RTC (treated group) % RTC (vehicle control group)×100. Statistical analysis (Student-t-test) of log relative tumor growth was used to compare treated verses control group in each experiment. A p-value (p≦0.05), which indicates a statistically significant reduction in relative tumor growth, was obtained in each case. 5 of 5 animals treated at day 28 with SPA-110 survived. 9 of 10 animals treated at day 28 with vincristine survived.

| SMILES | Antimitotic activity compared to hemiasterlin (MCF-7 mp53− cells) | Cytotoxicity compared to hemiasterlin [1] | Animals surviving at day 28 ([2]; LOVO xenograft mice, day 28, 1 mg/kg/dose on days 1, 5, 9) | % T/C day 7 ([2]; 1 mg/kg/dose on days 1, 5, 9) [%] | % T/C day 14 ([2]; 1 mg/kg/dose on days 1, 5, 9) [%] | % T/C day 21 ([2]; 1 mg/kg/dose on days 1, 5, 9) [%] | % T/C day 28 ([2]; 1 mg/kg/dose on days 1, 5, 9) [%] | Animals surviving at day 28 ([2]; female, athymic nu/nu, mouse, in vivo, 1 mg/kg, 28 days) |
| --- | --- | --- | --- | --- | --- | --- | --- | --- |
| CN[C@H](C(=O)NC(C(=O)N(C)C(/C=C(\C)C(=O)O)C(C)C)C(C)(C)C)C(C)(C)c1ccccc1 (stereo in doubt) [SPA-110, SPA 110-trifluoroacetate salt] | considerably greater antimitotic activity than the naturally occurring compound | more cytotoxic in some instances than the naturally occurring compound | 5 of 5 | 16 | 18 | 30 | 47 | – |
| CC[C@]1(O)C[C@H]2CN(CCc3c([nH]c4ccccc34)[C@@](C(=O)OC)(c3cc4c(cc3OC)N(C=O)[C@H]3[C@@](O)(C(=O)OC)[C@H](OC(C)=O)[C@]5(CC)C=CCN6CC[C@]43[C@@H]65)C2)C1 [Vincristine, reference compound] | – | – | – | 34 | 37 | 44 | 47 | 9 of 10 |
